These are literature values, as cited in US20180028452A1, “ANTIEMETIC EXTENDED RELEASE SOLID DOSAGE FORMS” (RedHill Biopharma Ltd., priority 2013, published 2018).

Counter-ions that a name gives are not always drawn.

The conditions of data set [1]: water and normal saline.
For data set [2] the following is noted: scale of Pliska et al., J. Chromatog. 216, 79, 1981.

On to `Cc1nccn1CC1CCc2c(c3ccccc3n2C)C1=O` (racemic) [Ondansetron HCl dihydrate, Ondansetron hydrochloride], for which the solubility entry in data set [1] is “soluble in water and normal saline”.
For the compound `NCC(=O)O` [glycine], the “hydropathy value (relative hydrophobic character)” value in data set [2] is given as 0.
On to `CC[C@H](C)[C@H](N)C(=O)O` [iso-leucine], for which, in data set [2], the “hydropathy value (relative hydrophobic character)” value is 1.83.
Regarding `N[C@@H](CC(=O)O)C(=O)O` [aspartic acid], the “hydropathy value (relative hydrophobic character)” value in data set [2] is reported as −2.15.
